# In US6835382B2, “Ii peptide therapeutics to enhance antigen presentation” (University of Massachusetts, priority 1996, dated 2004):
# Positions of bridges follow the written chain, without caps; N, C: chain ends. Non-standard residues stand in square brackets, D forms with d. No end group written: not given here. hArg = N=C(N)NCCCC[C@H](N)C(=O)O; Cit = NC(=O)NCCC[C@H](N)C(=O)O
# Target: T1, murine E^d MHC class II allele (Mus musculus, UniProt P01904+P01915)
# T1 sequence (P01904 26-255): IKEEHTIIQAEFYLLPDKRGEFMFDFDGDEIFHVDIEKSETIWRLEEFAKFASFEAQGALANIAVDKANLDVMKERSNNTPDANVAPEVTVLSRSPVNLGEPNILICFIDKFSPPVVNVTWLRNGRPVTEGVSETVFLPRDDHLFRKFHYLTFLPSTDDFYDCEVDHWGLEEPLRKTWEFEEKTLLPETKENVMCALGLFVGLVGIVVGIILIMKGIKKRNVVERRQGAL
# T1 sequence (P01915 27-264 limits assumed): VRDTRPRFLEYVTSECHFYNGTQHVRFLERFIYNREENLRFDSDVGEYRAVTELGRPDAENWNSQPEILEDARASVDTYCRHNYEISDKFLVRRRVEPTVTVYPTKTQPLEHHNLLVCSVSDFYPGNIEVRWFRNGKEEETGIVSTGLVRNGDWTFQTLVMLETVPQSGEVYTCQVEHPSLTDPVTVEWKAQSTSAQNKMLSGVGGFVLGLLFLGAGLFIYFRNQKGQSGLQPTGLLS
# Assay: simultaneous assay, E^d allele (A20 APC, G28.C9 T hybridoma, HEL106-116; HT-2 [3H]TdR readout)
# Type: cell-based
# Design: The A20 and CH27 B cell lymphoma lines express H-2^d and H-2^k alleles, respectively; endogenous in cells; host or cells: A20 B cell lymphoma (mitomycin C-treated or paraformaldehyde-fixed)
# Conditions: Table 15; AE peptide 16 μM; supernatant 1:4
# In short: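 Read-out is [3H]TdR incorporation into HT-2 indicator cells exposed to supernatant from a 24 h primary culture. That culture combined mitomycin C-treated APC (5×10^6 cells/mL, 0.025 mg/mL mitomycin C, 20 min, 37° C), peptide, effector compound and T hybridoma, all added at once.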
row,Substance,"Times Baseline Response, E^d"
1,Ac-A[Cit]NKNPK-NH2 [AE351],0.8
2,Ac-LR Orn K HArg PK-NH2 [AE340],46.6
3,Ac-LRMKNPF-NH2 [AE350],28.6

# Same assay, conditions: Table 16; AE peptide 4 μM; supernatant 1:8
row,Substance,"Times Baseline Response, E^d"
1,Ac-FK HArg MYP Cit-NH2 [AE371],1.6
2,Ac-LK HArg KYPK-NH2 [AE363],1.6
3,Ac-LKMKYPK-NH2 [AE362],1.2
4,Ac-LR HArg KYP Cit-NH2 [AE366],7.3
5,Ac-LR HArg MYPK-NH2 [AE365],6.1
6,Ac-LRLKYPN-NH2 [AE368],9.4
7,Ac-LRMKYPN-NH2 [AE370],8.7
8,Ac-LRMKYP[Cit]-NH2 [AE364],14.0
9,Ac-LRMMYP[Cit]-NH2 [AE367],1.0
10,Ac-L[hArg]LKYPK-NH2 [AE361],8.2
11,Ac-L[hArg]MKYPK-NH2 [AE360],5.8

# Same assay, conditions: Table 18; AE peptide 64 μM; supernatant 1:4
row,Substance,"Times Baseline Response, E^d"
1,Ac-LRMKLPK (lactam 4-C) [AE382],1.9
2,"cyclic LRMKLPK (bridge (positions not given here); also: cyclic, ring type not given here) [AE381, “head-to-tail” cyclization from the amino-terminus to the carboxyl-terminus of AE114]",2.1

# Same assay, conditions: Tables 12 and 18
row,Substance,"activity in simultaneous assay on E^d and E^k, in words"
1,"cyclic LRMKLPK (bridge (positions not given here); also: cyclic, ring type not given here) [AE381, “head-to-tail” cyclization from the amino-terminus to the carboxyl-terminus of AE114]",weak

# Same assay, conditions: text on Table 18
row,Substance,"activity in simultaneous assay on E^d, in words"
1,Ac-LRMKLPK (lactam 4-C) [AE382],relatively inactive
